Laboratory results: PMC6259751, “Investigating Spectrum of Biological Activity of 4- and 5-Chloro-2-hydroxy-N-[2-(arylamino)-1-alkyl-2-oxoethyl]benzamides” (Molecules, 2011)
≈ marks a conversion by molar mass, not a printed value. Where “and” joins values, the source holds several entries; their conditions need not be identical. Identical values can stand only once. Like-named read-outs stand apart in the source and are kept apart here.

How the values were obtained:
[1] = tested on: Trichophyton mentagrophytes 445; assay: In vitro antifungal susceptibility testing (broth microdilution); format: cell-based; conditions: M38-A for moulds, IC50 value, read-out: MIC TM
[2] = tested on: Staphylococcus epidermidis H 6966/08; assay: In vitro antibacterial susceptibility testing (broth microdilution); conditions: read-out: MIC SE
[3] = format: physicochemical; conditions: for precipitation in the testing medium: antimycobacterial testing medium
Method: (§1) The discussed amides were tested against three Mycobacteria strains. […] Activities of some benzamides, especially against M. avium and M. kansasii, considerably exceeded the activity of isoniazid (INH) used as an internal standard. The discussed compounds can be divided according to the activities against individual Mycobacteria strains, and structure-activity relationships within Group 1, Group 2 and Group 4 can be discussed.

[4] = tested on: Mycobacterium kansasii MK CNCTC My 235/80; assay: In vitro antimycobacterial evaluation; format: cell-based; conditions: IC90 value
Candida tropicalis 156 = assay: In vitro antifungal susceptibility testing (broth microdilution); format: cell-based; conditions: M27-A2 for yeasts, IC80 value
[5] = tested on: photosynthetic electron transport (PET) in spinach chloroplasts; assay: Inhibition of photosynthetic electron transport (PET) in spinach chloroplasts; format: biochemical, Spinacia oleracea L.; conditions: DCPIP photoreduction
Method: Chloroplasts were prepared from spinach (Spinacia oleracea L.) according to Masarovicova and Kralova. The inhibition of photosynthetic electron transport (PET) in spinach chloroplasts was determined spectrophotometrically (Genesys 6, Thermo Scientific, USA), using an artificial electron acceptor 2,6-dichlorophenol-indophenol (DCIPP) according to Kralova et al., and the rate of photosynthetic electron transport was monitored as a photoreduction of DCPIP. The measurements were carried out in phosphate buffer (0.02 mol/L, pH 7.2) containing sucrose (0.4 mol/L), MgCl2 (0.005 mol/L) and NaCl (0.015 mol/L). The chlorophyll content was 30 mg/L in these experiments and the samples were irradiated (~100 W/m^2) from 10 cm distance with a halogen lamp (250 W) using a 4 cm water filter to prevent warming of the samples. The studied compounds were dissolved in DMSO due to their limited water solubility. […] The inhibitory efficiency of the studied compounds was expressed by IC50 values, i.e. by molar concentration of the compounds causing 50% decrease in the oxygen evolution rate relative to the untreated control.

[6] = Lipophilicity determination by RP-HPLC (capacity factor k / log k); format: physicochemical; conditions: C18 column, MeOH 70% / H2O 30%, isocratic
Outline: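 Isocratic RP-HPLC on end-capped C18 column, MeOH/H2O 70:30, 1.0 mL/min, 30 °C, UV 210 nm. Dead time from unretained KI; k = (tR − tD)/tD, log k taken as lipophilicity index on log P scale. Calculated log P/Clog P from two programs also reported.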

[7] = tested on: Enterococcus sp. J 14365/08; assay: In vitro antibacterial susceptibility testing (broth microdilution); conditions: read-out: MIC EF
[8] = tested on: Mycobacterium avium MA CNCTC My 330/88; assay: In vitro antimycobacterial evaluation; format: cell-based; conditions: IC90 value
[9] = tested on: methicilin resistant Staphylococcus aureus H 5996/08; assay: In vitro antibacterial susceptibility testing (broth microdilution); conditions: MRSA, read-out: MIC MRSA
[10] = tested on: Mycobacterium tuberculosis MTB CNCTC My 331/88; assay: In vitro antimycobacterial evaluation; format: cell-based; conditions: IC90 value
[11] = tested on: Staphylococcus aureus CCM 4516/08; assay: In vitro antibacterial susceptibility testing (broth microdilution); conditions: read-out: MIC SA
[12] = tested on: photosynthetic electron transport (PET) in spinach chloroplasts; parameters: method as in earlier work; conditions: standard ref 41; cited from earlier work
[13] = tested on: three Mycobacteria strains; assay: Antimycobacterial screening, summary statements (strain not specified); format: cell-based, Mycobacterium sp.; conditions: Mycobacterium, read-out: antitubercular / antimycobacterial activity (MIC)
Method: as §1
The in vitro antimycobacterial activity of all prepared compounds was evaluated against Mycobacterium tuberculosis MTB CNCTC My 331/88 (identical with H37RV and ATCC 27294, dilution of the strain was 10^−3 μmol/L), Mycobacterium avium MA CNCTC My 330/88 (identical with ATCC 25291, dilution of the strain was 10^−5 μmol/L) and Mycobacteriumkansasii MK CNCTC My 235/80 (identical with ATCC 12478, dilution of the strain was 10^−4 μmol/L) in the Laboratory for mycobacterial diagnostics and TB, Institute of Public Health in Ostrava, Czech Republic. All strains were obtained from the Czech National Collection of Type Cultures (CNCTC). Antimycobacterial activities were determined in the Sula semisynthetic medium (Sevac, Prague, Czech Republic). […] Reading was carried out on a stand with a bottom magnifying mirror, macroscopically, with the use of magnifying glass. The growth in plates was evaluated after 14 and 21 days of the incubation. […]

Compound | MIC ([1]; 72h) | MIC ([1]; 120h) | MIC ([2]; H6966/08, 24 h) | MIC ([2]; H6966/08, 48 h) | MIC ([4]; 14h) | MIC ([4]; 21h) | MIC (Candida tropicalis 156; 24h) | MIC (Candida tropicalis 156; 48h) | IC50 [5] | log k [6] | MIC ([7]; SP.J14365/08, 24 h) | MIC ([7]; SP.J14365/08, 48 h) | MIC ([8]; 14h) | MIC ([8]; 21h) | MIC ([9]; 24 h) | MIC ([9]; 48 h) | MIC ([10]; 14h) | MIC ([10]; 21h) | MIC ([11]; CCM4516, 24 h) | MIC ([11]; CCM4516, 48 h) | other results
C[C@H](NC(=O)c1cc(Cl)ccc1O)C(=O)Nc1cccc(Cl)c1 [8b] | 125 µM (≈ 44.2 µg/mL) | 125 µM (≈ 44.2 µg/mL) | > 250 µM | > 250 µM | 500 µM (≈ 177 µg/mL) | > 500 µM | > 125 µM | > 125 µM | 41.7 µM | 0.41 and 0.4166 | > 250 µM | > 250 µM | 500 µM (≈ 177 µg/mL) | > 500 µM | > 250 µM | > 250 µM | 250 µM (≈ 88.3 µg/mL) | > 500 µM | > 250 µM | > 250 µM | solubility in comparison with the initial esters [3]: lower solubility; precipitation in the testing medium [3]: precipitation in the testing medium
CN(C)C(=O)Nc1ccc(Cl)c(Cl)c1 [DCMU, 3-(3,4-dichlorophenyl)-1,1-dimethylurea] |  |  |  |  |  |  |  |  |  |  |  |  |  |  |  |  |  |  |  |  | IC50 [12]: ~1.9 µM and 1.9 µM
O=C(N[C@H](Cc1ccccc1)C(=O)Nc1ccc(Cl)cc1)c1ccc(Cl)cc1O [9f, N-{(1R)-1-benzyl-2-[(4-chlorophenyl)amino]-2-oxoethyl}-4-chloro-2-hydroxybenzamide] | > 125 µM | > 125 µM | > 500 µM | > 500 µM | 32 µM (≈ 13.7 µg/mL) | 32 µM (≈ 13.7 µg/mL) | > 125 µM | > 125 µM | 23.5 µM | 0.7479 | > 500 µM | > 500 µM | 32 µM (≈ 13.7 µg/mL) | 32 µM (≈ 13.7 µg/mL) | > 500 µM | > 500 µM | 32 µM (≈ 13.7 µg/mL) | 32 µM (≈ 13.7 µg/mL) | > 500 µM | > 500 µM | MIC [13]: 32 µM (≈ 13.7 µg/mL)
O=C(N[C@H](Cc1ccccc1)C(=O)Nc1ccc(Cl)cc1)c1cc(Cl)ccc1O [8l, N-{(1R)-1-benzyl-2-[(4-chlorophenyl)amino]-2-oxoethyl}-5-chloro-2-hydroxybenzamide] | 125 µM (≈ 53.7 µg/mL) | 125 µM (≈ 53.7 µg/mL) | > 125 µM | > 125 µM | 32 µM (≈ 13.7 µg/mL) | 32 µM (≈ 13.7 µg/mL) | 125 µM (≈ 53.7 µg/mL) | > 125 µM | 33.7 µM | 0.7329 | > 125 µM | > 125 µM | 32 µM (≈ 13.7 µg/mL) | 32 µM (≈ 13.7 µg/mL) | > 125 µM | > 125 µM | 16 µM (≈ 6.87 µg/mL) | 16 µM (≈ 6.87 µg/mL) | > 125 µM | > 125 µM | MIC [13]: 32 µM (≈ 13.7 µg/mL)
O=C(N[C@H](Cc1ccccc1)C(=O)Nc1ccc(Cl)c(Cl)c1)c1cc(Cl)ccc1O [8r] | > 125 µM | > 125 µM | > 500 µM | > 500 µM | 250 µM (≈ 116 µg/mL) | > 1000 µM | > 125 µM | > 125 µM |  | 0.9408 | > 500 µM | > 500 µM | 125 µM (≈ 58 µg/mL) | > 1000 µM | > 500 µM | > 500 µM | 125 µM (≈ 58 µg/mL) | > 1000 µM | > 500 µM | > 500 µM | solubility in comparison with the initial esters [3]: lower solubility; precipitation in the testing medium [3]: precipitated from testing medium
O=C(N[C@@H](Cc1ccccc1)C(=O)Nc1ccc(Cl)c(Cl)c1)c1cc(Cl)ccc1O [8q] | > 125 µM | > 125 µM | > 500 µM | > 500 µM | 250 µM (≈ 116 µg/mL) | > 1000 µM | > 125 µM | > 125 µM | 74.2 µM | 0.9485 | > 500 µM | > 500 µM | 125 µM (≈ 58 µg/mL) | > 1000 µM | > 500 µM | > 500 µM | 125 µM (≈ 58 µg/mL) | > 1000 µM | > 500 µM | > 500 µM | solubility in comparison with the initial esters [3]: lower solubility; precipitation in the testing medium [3]: precipitated from testing medium
O=C(CNC(=O)c1cc(Cl)ccc1O)Nc1cccc(Cl)c1 [8a] | 125 µM (≈ 42.4 µg/mL) | 125 µM (≈ 42.4 µg/mL) | > 250 µM | > 250 µM | 250 µM (≈ 84.8 µg/mL) | 250 µM (≈ 84.8 µg/mL) | 125 µM (≈ 42.4 µg/mL) | 125 µM (≈ 42.4 µg/mL) | 379 µM | 0.2439 | > 250 µM | > 250 µM | 62.5 µM (≈ 21.2 µg/mL) | 62.5 µM (≈ 21.2 µg/mL) | > 250 µM | > 250 µM | 125 µM (≈ 42.4 µg/mL) | 125 µM (≈ 42.4 µg/mL) | > 250 µM | > 250 µM | 
